The text below walks through data of patent US20250206761A1, “HALOINDOLE MACROCYCLIC COMPOUNDS FOR THE TREATMENT OF CANCER” (Hoffmann-La Roche Inc., priority 2022, published 2025).

Each structure is given as a SMILES string.

Experiment [1] has as its system phosphorylation of ERK, KRAS G12C in NCJ-H358 cells. Nature of the experiment: pERK inhibition assay, KRAS G12C. Particulars: Homo sapiens, 4 hours. It is filed as cell-based, human. The method, then:
(§1) This assay is to measure the ability of test compounds in inhibiting the phosphorylation of ERK, the downstream signaling of KRAS G12C in NCJ-H358 cells, KRAS G12D in AGS cells, and KRAS G12V in SW620. NCJ-H358 (ATCC-CRL5807) cells, AGS (ATCC-CRL-1739) cells, SW620 (ATCC-CCL-227) cells were all grown and maintained using RPMI-1640 medium (Thermo Fisher Scientific) with 10% fetal bovine serum and 1% penicillin/streptomycin. On the day prior to compound addition, cells were plated in tissue culture-treated 96 well plates (Corning-3699) at a density of 30,000 cell/well, 20,000 cell/well, 30,000 cell/well for NCJ-H358, AGS and SW620 respectively, and allowed for attachment overnight. Diluted compounds were then added in a final concentration of 0.5% DMSO. After 4 hours of incubation, the medium was removed, 100 μL of 4% formaldehyde was added, and the assay plates were incubated at room temperature for 20 minutes. The plates were then washed once with phosphate buffered saline (PBS), and permeabilized with 100 μL of chilled methanol for 10 minutes. Non-specific antibody binding to the plates was blocked using 50 μL 1×BSA blocking buffer (Thermo-37520, 10-fold dilution by Phosphate-Buffered Saline Tween (PBST) for at least 1 hour at room temperature.
(§2) The amount of phosphor-ERK was determined using an antibody specific for phosphorylated form of ERK. Primary antibody (pERK, CST-4370, Cell Signaling Technology) was diluted 1:300 in blocking buffer, with 50 μL aliquoted to each well, and incubated overnight at 4′° C. Cells was washed five times for 5 minutes with PBST. Secondary antibody ([…] anti-rabbit IgG, CST-7074, Cell Signaling Technology) was diluted 1:1000 in blocking buffer, and 50 μL was added to each well and incubated 1-2 hrs at room temperature. Cells was washed 5 times for 5 minutes with PBST, 100 μL TMB ELISA substrate (abcam-ab171523) were added and gently shake for 20 minutes. 50 μL stop solution (abcam-ab171529) were added, and then read the signal (OD450) by EnVision.
(§3) IC50 was determined by fitting a 4-parameter sigmoidal concentration response model.

Experiment [2] has as its target KRAS G12V binding to BRAF (Homo sapiens (Human), UniProt P01116+P62937, G12V). Nature of the experiment: KRAS-BRAF with CYPA (500 nM) interaction assay (TR-FRET), G12V. Type of experiment: biochemical. The protocol: In this example, TR-FRET was also used to measure the compound or compound-CYPA dependent disruption of the KRAS G12C-BRAF complex. This protocol was also used to measure disruption of KRAS G12D or KRAS G12V binding to BRAF by a compound of the invention, respectively. In assay buffer containing 25 mM HEPES PH=7.4 (4-(2-hydroxyethyl)-1-piperazineethanesulfonic acid, Thermo, 15630080), 0.002% Tween20, 0.1% BSA, 100 mM NaCl, 5 mM MgCl2, 10 μM GMPPNP (Guanosine 5′-[β,γ-imido]triphosphate trisodium salt hydrate, Sigma, G0635), […], GMPPNP loaded 6His-KRAS proteins, and […], 6.25 nM and 1 nM, respectively. Compound was present in plate wells as a 16-point 3-fold dilution series starting at a final concentration of 10 μM and incubated for 3 hours. A mixture of MAb Anti-6His-XL665 (Cisbio, 61HISXLB) and Mab anti-GST-TB cryptate (Cisbio, 61GSTTLB) was then added at a final concentration of 6.67 nM and 0.21 nM, respectively, and the plate was incubated for an additional 1.5 hours. TR-FRET signal was read on a PHERstar FSX microplate reader (Ex320 nm, Em 665/615 nm). Compounds that facilitate disruption of the KRAS-BRAF complex were identified as those eliciting a decrease in the TR-FRET ratio relative to DMSO control wells.
(TR-FRET usually uses a lanthanide donor and a delayed reading to cut background.)

The next experiment concerns SW620 (ATCC-CCL-227). As to the kind of experiment: Cell viability assay, G12V (SW620). It is filed as cell-based, human. The conditions noted are these: Homo sapiens, SW-620; KRAS cell viability, SW620, 72 hrs, Cell Counting Kit-8. The protocol: (§4) The purpose of this cellular assay was to determine the effects of test compounds on the proliferation of human cancer cell lines NCI-H358 (ATCC-CRL5807) cells, AGS (ATCC-CRL-1739) cells, SW620 (ATCC-CCL-227) over a 3-day treatment period by quantifying the amount of NADPH present at endpoint using Cell Counting Kit-8.
(§5) Cells were seeded at 5,000 cells/well (NCI-H358), 2,000 cells/well (AGS) 2,000 cells/well (SW620) in 96-well assay plates (Corning-3699) and incubated overnight. On the day of the assay, diluted compounds were then added in a final concentration of 0.5% DMSO. After 72 hrs incubation, a tenth of the volume of cell counting kit 8 (Dnjindo-CK04) was added into each well. Read the signal (OD450 minus OD650) using EnVision after 2 hrs incubation. IC50 was determined by fitting a 4-parameter sigmoidal concentration response model.
For orientation: Tetrazolium assays rely on reduction of a dye to a coloured formazan, in cell work by metabolically active cells.

Experiment [3] deals with AGS (ATCC-CRL-1739) cells. Nature of the experiment: Cell viability assay, G12D (AGS). It is filed as cell-based, human. The conditions noted are these: Homo sapiens, KRAS cell viability, 72 hrs, Cell Counting Kit-8. The protocol:
as §4, §5

Experiment [4] deals with phosphorylation of ERK, KRAS G12V in SW620. Nature of the experiment: pERK inhibition assay, KRAS G12V. Type of experiment: cell-based, human. The conditions noted are these: Homo sapiens, SW-620, SW620, 4 hours. The method, then:
as §1, §2, §3

A further experiment deals with KRAS G12C-BRAF complex (Homo sapiens (Human), UniProt P01116+P62937, G12C). Nature of the experiment: KRAS-BRAF with CYPA (500 nM) interaction assay (TR-FRET), G12C. Type of experiment: biochemical. The method, then: (§6) In this example, TR-FRET was also used to measure the compound or compound-CYPA dependent disruption of the KRAS G12C-BRAF complex. This protocol was also used to measure disruption of KRAS G12D or KRAS G12V binding to BRAF by a compound of the invention, respectively. In assay buffer containing 25 mM HEPES PH=7.4 (4-(2-hydroxyethyl)-1-piperazineethanesulfonic acid, Thermo, 15630080), 0.002% Tween20, 0.1% BSA, 100 mM NaCl, 5 mM MgCl2, 10 μM GMPPNP (Guanosine 5′-[β,γ-imido]triphosphate trisodium salt hydrate, Sigma, G0635), […] 384-well assay plate at final concentrations of 50 nM, 6.25 nM and 1 nM, respectively. Compound was present in plate wells as a 16-point 3-fold dilution series starting at a final concentration of 10 μM and incubated for 3 hours. A mixture of MAb Anti-6His-XL665 (Cisbio, 61HISXLB) and Mab anti-GST-TB cryptate (Cisbio, 61GSTTLB) was then added at a final concentration of 6.67 nM and 0.21 nM, respectively, and the plate was incubated for an additional 1.5 hours. TR-FRET signal was read on a PHERstar FSX microplate reader (Ex320 nm, Em 665/615 nm). Compounds that facilitate disruption of the KRAS-BRAF complex were identified as those eliciting a decrease in the TR-FRET ratio relative to DMSO control wells.

The target of experiment [5] is KRAS G12D binding to BRAF (Homo sapiens (Human), UniProt P01116+P62937, G12D). As to the kind of experiment: KRAS-BRAF with CYPA (500 nM) interaction assay (TR-FRET), G12D. It is filed as biochemical. The method, then:
as §6

The subject of experiment [6] is NCI-H358 (ATCC-CRL5807) cells. As to the kind of experiment: Cell viability assay, G12C (NCI-H358). Type of experiment: cell-based, human. The conditions noted are these: Homo sapiens; KRAS cell viability, NCI-H358, 72 hrs, Cell Counting Kit-8. The protocol:
as §4, §5

Chain of KRAS G12D binding to BRAF (P01116-2 other isoform, or with tags, fused parts or gaps G12D): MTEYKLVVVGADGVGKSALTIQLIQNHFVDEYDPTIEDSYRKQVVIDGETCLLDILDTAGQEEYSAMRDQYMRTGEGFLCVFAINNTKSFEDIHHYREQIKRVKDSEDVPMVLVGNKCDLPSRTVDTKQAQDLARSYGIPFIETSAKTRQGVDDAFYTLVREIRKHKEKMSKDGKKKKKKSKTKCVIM
Chain of KRAS G12D binding to BRAF (P62937 whole entry): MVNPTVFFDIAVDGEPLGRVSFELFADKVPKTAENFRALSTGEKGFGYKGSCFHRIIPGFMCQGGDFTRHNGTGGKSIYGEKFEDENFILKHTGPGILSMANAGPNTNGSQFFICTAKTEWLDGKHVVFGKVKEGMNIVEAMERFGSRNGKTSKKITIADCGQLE
Chain of KRAS G12V binding to BRAF (P01116-2 other isoform, or with tags, fused parts or gaps G12V): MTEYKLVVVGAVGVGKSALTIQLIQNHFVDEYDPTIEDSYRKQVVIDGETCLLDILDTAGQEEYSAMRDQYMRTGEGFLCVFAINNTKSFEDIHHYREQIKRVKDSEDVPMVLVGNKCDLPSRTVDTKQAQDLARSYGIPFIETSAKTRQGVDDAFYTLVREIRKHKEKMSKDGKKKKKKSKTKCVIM
Chain of KRAS G12V binding to BRAF (P62937 whole entry): as the sequence (P62937 whole entry) above
Chain of KRAS G12C-BRAF complex (P01116-2 other isoform, or with tags, fused parts or gaps G12C): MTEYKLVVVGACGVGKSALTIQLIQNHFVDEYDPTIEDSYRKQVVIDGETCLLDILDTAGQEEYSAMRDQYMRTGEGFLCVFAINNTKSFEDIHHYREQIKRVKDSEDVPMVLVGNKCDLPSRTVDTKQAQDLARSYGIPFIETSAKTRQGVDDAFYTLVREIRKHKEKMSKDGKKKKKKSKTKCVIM
Chain of KRAS G12C-BRAF complex (P62937 whole entry): as the sequence (P62937 whole entry) above

In the case of `CCn1c(-c2cc(N3CCN(CC(F)(F)F)CC3)cnc2[C@H](C)OC)c2c3cc(c(F)cc31)-c1csc(n1)C[C@H](NC(=O)[C@H](C(C)C)N1CC[C@@]3(CCN(C(=O)[C@H](F)Cl)C3)C1=O)C(=O)N1CCC[C@H](N1)C(=O)OCC(C)(C)C2` (atropisomer, axis not shown; (M)) [Example 35, (2S)-2-[(5R)-7-[(2R)-2-chloro-2-fluoro-acetyl]-1-oxo-2,7-diazaspiro[4.4]nonan-2-yl]-N-[(7S,13S)-21-ethyl-24-fluoro-(20M)-20-[2-[(1S)-1-methoxyethyl]-5-[4-(2,2,2-trifluoroethyl)piperazin-1-yl]-3-pyridyl]-17,17-dimethyl-8,14-dioxo-15-oxa-4-thia-9,21,27,28-tetrazapentacyclo[17.5.2.1^2,5.1^9,13.0^22,26]octacosa-1(25),2,5(28),19,22(26),23-hexaen-7-yl]-3-methyl-butanamide], the IC50 in experiment [1] is 3 nM; in experiment [2], > 10000 nM; in the experiment on SW620 (ATCC-CCL-227), 3530 nM; in experiment [3] it was 69 nM; in experiment [4], 50 nM; against KRAS G12C-BRAF complex, 23 nM. Besides, the IC50 is 3220 nM in experiment [5] and < 1 nM in experiment [6].

Consider `CCn1c(-c2cc(N3CCN(C)CC3)cnc2[C@H](C)OC)c2c3cc(c(F)cc31)-c1csc(n1)C[C@H](NC(=O)[C@H](C(C)C)N1CCCC3(CCN(C(=O)[C@H](F)Cl)CC3)C1=O)C(=O)N1CCC[C@H](N1)C(=O)OCC(C)(C)C2` (atropisomer, axis not shown; (M)) [Example 36, (2S)-2-[9-[(2R)-2-chloro-2-fluoro-acetyl]-1-oxo-2,9-diazaspiro[5.5]undecan-2-yl]-N-[(7S,13S)-21-ethyl-24-fluoro-(20M)-20-[2-[(1S)-1-methoxyethyl]-5-(4-methylpiperazin-1-yl)-3-pyridyl]-17,17-dimethyl-8,14-dioxo-15-oxa-4-thia-9,21,27,28-tetrazapentacyclo[17.5.2.1^2,5.1^9,13.0^22,26]octacosa-1(25),2,5(28),19,22(26),23-hexaen-7-yl]-3-methyl-butanamide], for which the IC50 in experiment [1] was 3 nM; in experiment [2], > 10000 nM; in the experiment on SW620 (ATCC-CCL-227), 132 nM; in experiment [3] it was 30 nM; in experiment [4], 13 nM; on KRAS G12C-BRAF complex, 38 nM. The IC50 in experiment [5] is 3940 nM; in experiment [6], < 1 nM.

As to `CCn1c(-c2cc(N3CCN(CC(F)(F)F)CC3)cnc2[C@H](C)OC)c2c3cc(c(F)cc31)-c1csc(n1)C[C@H](NC(=O)[C@H](C(C)C)N1CCC3(CCN(C(=O)[C@H](F)Cl)CC3)C1=O)C(=O)N1CCC[C@H](N1)C(=O)OCC(C)(C)C2` (atropisomer, axis not shown; (M)) [Example 39, (2S)-2-[8-[(2R)-2-chloro-2-fluoro-acetyl]-1-oxo-2,8-diazaspiro[4.5]decan-2-yl]-N-[(7S,13S)-21-ethyl-24-fluoro-(20M)-20-[2-[(1S)-1-methoxyethyl]-5-[4-(2,2,2-trifluoroethyl)piperazin-1-yl]-3-pyridyl]-17,17-dimethyl-8,14-dioxo-15-oxa-4-thia-9,21,27,28-tetrazapentacyclo[17.5.2.1^2,5.1^9,13.0^22,26]octacosa-1(25),2,5(28),19,22(26),23-hexaen-7-yl]-3-methyl-butanamide], the IC50 in experiment [1] was 6 nM; in experiment [2], > 10000 nM; in the experiment with SW620 (ATCC-CCL-227) it was 184 nM; in experiment [3], 112 nM; in experiment [4], 44 nM; against KRAS G12C-BRAF complex, 104 nM. For the same molecule, the half-maximal inhibitory concentration (IC50) in experiment [5] is > 10000 nM; in experiment [6], < 1 nM.

Turning to `CCn1c(-c2cc(N3CCN(C)CC3)cnc2[C@H](C)OC)c2c3cc(c(F)cc31)-c1csc(n1)C[C@H](NC(=O)[C@@H](COC1CN(C(=O)[C@H](F)Cl)C1)C(C)C)C(=O)N1CCC[C@H](N1)C(=O)OCC(C)(C)C2` (atropisomer, axis not shown; (M)) [Example 40, (2R)-2-[[1-[(2R)-2-chloro-2-fluoro-acetyl]azetidin-3-yl]oxymethyl]-N-[(7S,13S)-21-ethyl-24-fluoro-(20M)-20-[2-[(1S)-1-methoxyethyl]-5-(4-methylpiperazin-1-yl)-3-pyridyl]-17,17-dimethyl-8,14-dioxo-15-oxa-4-thia-9,21,27,28-tetrazapentacyclo[17.5.2.1^2,5.1^9,13.0^22,26]octacosa-1(25),2,5(28),19,22(26),23-hexaen-7-yl]-3-methyl-butanamide], the IC50 was 10 nM in experiment [1]; > 10000 nM in experiment [2]; 63 nM in the experiment on SW620 (ATCC-CCL-227); 1110 nM in experiment [3]; 23 nM in experiment [4]; 108 nM at KRAS G12C-BRAF complex. Besides, the IC50 is > 10000 nM in experiment [5] and < 1 nM in experiment [6].

The IC50 is the concentration that gives 50% inhibition.
